Laboratory results reported in PubChem BioAssay AID504903 (Southern Research Specialized Biocontainment Screening …, 2011).
The source made the active and inactive calls. No rule for the calls is given here.

Key:
[1] = system: M. tuberculosis H37Rv growth in 7H9 medium; test: M. tuberculosis growth inhibition, dose response, H37Rv, 7H9 media, purified and synthesized compounds, set 5 (AID 504903); conditions: for IC50: measured here: M. tuberculosis growth IC50
[2] = as above; conditions: M. tuberculosis H37Rv growth in 7H9 medium; at 100 µM (top of the series)

| SMILES | IC90 [1] [nM] | IC50 [1] [nM] | growth inhibition [2] |
| --- | --- | --- | --- |
| O=C(CSc1nc2ccccc2c(=O)[nH]1)NCc1ccc(Cl)cc1 | 980 | 440 | – |
| NC[C@H]1O[C@H](O[C@H]2[C@H](O)[C@@H](O[C@H]3O[C@H](CO)[C@@H](O)[C@H](N)[C@H]3O)[C@H](N)C[C@@H]2N)[C@H](O)[C@@H](O)[C@@H]1O | 2360 | 1140 | – |
| CCSc1nc2ccccc2c(=O)[nH]1 | – | – | -4.06% (inactive) |
| Cc1nc(SCC(N)=O)[nH]c(=O)c1C | – | – | 1.58% (inactive) |
| CCC(Sc1nc2c(c(=O)[nH]1)CCC2)C(=O)Nc1cccc(OC)c1 (stereo not drawn) | – | – | 0.63% (inactive) |
| CC(Sc1nc2ccccc2c(=O)[nH]1)C(=O)NC1CCCCC1 (stereo not drawn) | – | – | -8.54% (inactive) |
| Nc1cc(=O)[nH]c(SCC(=O)NC2CCCCC2)n1 | – | – | -2.55% (inactive) |
| COc1c(N2CCNC(C)C2)c(F)cc2c(=O)c(C(=O)O)cn(C3CC3)c12 (stereo not drawn) | 120 | 90 | – |
| COC(=O)c1ccc(CNc2c(N3CCCC3)c(=O)c2=O)cc1 | – | – | 23.6% (inactive) |
| Nc1c(C(=O)NC2CCCCC2)nsc1C(=O)OCC(=O)NC1CCCCC1 | 42400 | 1970 | – |
| CCC(Sc1nc2ccccc2c(=O)[nH]1)C(=O)Nc1cccc(OC)c1 (stereo not drawn) | – | – | -2.52% (inactive) |
| COc1cccc(NC(=O)CSc2nc3c(c(=O)[nH]2)CCC3)c1 | – | – | -9.73% (inactive) |
| CN(C(=O)CSc1nc2ccccc2c(=O)[nH]1)C1CCCCC1 | – | – | -0.89% (inactive) |
| Cc1cc(C)n2nc(N)c(N=Nc3ccccc3)c2n1 | 5540 | 3880 | – |
| CCCc1cc(C(N)=S)ccn1 | – | 6010 | – |
| O=C(CSc1ccccn1)NC1CCCCC1 | – | > 95800 | – |
| COc1cccc(NC(=O)CSc2nc3ccccc3c(=O)[nH]2)c1 | – | – | -1.31% (inactive) |
| Cc1cc(=O)[nH]c(=S)[nH]1 | – | – | -8.51% (inactive) |
| O=C(CSc1nc2ccccc2c(=O)[nH]1)N1CCOCC1 | – | – | -3.23% (inactive) |
| Cc1cc(Br)ccc1NC(=O)c1cnc(N2CCN(c3ccccn3)CC2)c2ccccc12 | 6160 | 680 | – |
| Cc1[nH]c(=S)[nH]c(=O)c1C | – | – | -6.68% (inactive) |
| O=c1[nH]c(=S)[nH]c2ccccc12 | – | – | -4.57% (inactive) |
| CCC(Sc1nc2ccccc2c(=O)[nH]1)C(=O)NC1CCCCC1 (stereo not drawn) | – | – | -1.65% (inactive) |

| SMILES | IC90 [1] [nM] | IC50 [1] [nM] | growth inhibition [2] |
| --- | --- | --- | --- |
| O=C(CSc1ncccn1)NC1CCCCC1 | – | – | -3.3% (inactive) |
| Cc1nc(SCC(=O)NC2CCCC2)[nH]c(=O)c1C | 10500 | 4490 | – |
| NC(=O)c1cnccn1 | – | – | 0.23% (inactive) |
| Cc1cccc(-c2oc3ccc(-c4ccc5c(c4)OCO5)cc3c2C#Cc2cncn2C)c1 | 3030 | 2520 | – |
| CC1CCN(C(=O)CSc2nc3ccccc3c(=O)[nH]2)CC1 | – | – | -3.58% (inactive) |
| Cc1ccc(C(=O)N/N=C(/CC(=O)c2cccs2)C(F)(F)F)cc1 | 2940 | 1250 | – |
| CC(C)NC(=O)CSc1nc2ccccc2c(=O)[nH]1 | 18800 | 4770 | – |
| NNC(=O)c1ccncc1 | 320 | 190 | – |
| Cc1nc(SCC(=O)NCCC(C)C)[nH]c(=O)c1C | 9790 | 4870 | – |
| CCOC1OC(=O)C(Cl)=C1Nc1ccccc1C (stereo not drawn) | 5450 | 2900 | – |
| Cc1c[nH]c(=S)[nH]c1=O | – | – | -1.72% (inactive) |
| CCSc1nc(C)c(C)c(=O)[nH]1 | – | – | -1.81% (inactive) |
| Cc1cccc(/C=C/C(=O)c2ccc([N+](=O)[O-])o2)c1 | 800 | 310 | – |
| c1ccc(/N=C2\N=C(Nc3ccccn3)c3ccccc32)nc1 | 1330 | 750 | – |
| O=c1[nH]c(SCc2ccccc2Cl)nc2c1CCCC2 | – | – | -4.24% (inactive) |
| CC(C)CCNC(=O)CSc1nc2ccccc2c(=O)[nH]1 | 120 | < 60 | – |
| Cc1ccc(NC(=O)COC(=O)CCc2c[nH]c3ccccc23)cc1[N+](=O)[O-] | 3590 | 860 | – |
| CC1CCN(C(=O)C2CCN(c3nnc(-n4cccc4)s3)CC2)CC1 | 4660 | 2550 | – |
| Cc1cc(=O)[nH]c(SCC(=O)NC2CCCCC2)n1 | – | – | 8.24% (inactive) |
| COC(=O)C(C)Oc1ccc(Cc2ncc(C(F)(F)F)cc2Cl)cc1 (stereo not drawn) | 7660 | 3110 | – |
| O=C(CSc1nc2c(c(=O)[nH]1)CCCC2)NC1CCCCC1 | < 70 | < 30 | – |
| Cc1ccc(NC(=O)CSc2nc3ccccc3c(=O)[nH]2)cc1Cl | – | – | -6.21% (inactive) |
| CC(C)N=c1cc2n(-c3ccc(Cl)cc3)c3ccccc3nc-2cc1Nc1ccc(Cl)cc1 | 310 | 10 | – |

| SMILES | IC90 [1] [nM] | IC50 [1] [nM] | growth inhibition [2] |
| --- | --- | --- | --- |
| CNC(=O)CSc1nc2ccccc2c(=O)[nH]1 | – | 56200 | – |
| NC(=O)CSc1nc2ccccc2c(=O)[nH]1 | – | – | 3.23% (inactive) |
| O=C(CSc1nccc(=O)[nH]1)NC1CCCCC1 | – | – | -5.41% (inactive) |
| CN(C)C(=O)CSc1nc2ccccc2c(=O)[nH]1 | – | – | -2.5% (inactive) |
| Cc1[nH]c2ccccc2c1C(=O)COC(=O)c1ccc([N+](=O)[O-])s1 | – | > 50300 | – |
| CCOc1ccc(-c2cc(C)[n+](CCc3ccc(OC)c(OC)c3)c(-c3ccc(OCC)cc3)c2)cc1 | 860 | 480 | – |
| CC[N+](C)(CC)CCCCOc1ccc2c(c1)C(=O)c1cc(OCCCC[N+](C)(CC)CC)ccc1-2 | 2450 | 1500 | – |
| CC(C)CCNC(=O)CSc1nc2c(c(=O)[nH]1)CCC2 | 1030 | 600 | – |
| CO[C@H]1/C=C/O[C@@]2(C)Oc3c(C)c(O)c4c(O)c(c(C=NN5CCN(C)CC5)c(O)c4c3C2=O)NC(=O)/C(C)=C\C=C\[C@H](C)[C@H](O)[C@@H](C)[C@@H](O)[C@@H](C)[C@H](OC(C)=O)[C@@H]1C | 10 | < 10 | – |
| CN1CCC(NC(=O)CSc2nc3ccccc3c(=O)[nH]2)CC1 | – | – | -7.75% (inactive) |
| CCOC(=O)CSc1nc(C)c(C)c(=O)[nH]1 | – | – | -4.51% (inactive) |
| COC(=O)C(Nc1nc(SCC(=O)NC2CCCCC2)nc2ccccc12)c1ccccc1 (stereo not drawn) | – | – | 0.4% (inactive) |
| COc1ccc(NC(=O)CSc2nc3ccccc3c(=O)[nH]2)cc1 | – | – | 4.59% (inactive) |
| Cc1nc(SCc2ccccc2Cl)[nH]c(=O)c1C | – | – | -6.23% (inactive) |
| O=C(CSc1nc2ccccc2c(=O)[nH]1)NC1CCCC1 | 550 | 30 | – |
| Cc1cnc(SCC(=O)NC2CCCCC2)[nH]c1=O | – | – | -2.75% (inactive) |
| CN[C@@H]1[C@H](O[C@H]2[C@H](O[C@H]3[C@H](O)[C@@H](O)[C@H](N=C(N)N)[C@@H](O)[C@@H]3N=C(N)N)O[C@@H](C)[C@]2(O)C=O)O[C@@H](CO)[C@H](O)[C@H]1O | 140 | 70 | – |
| O=C(CSc1nc2ccccc2c(=O)[nH]1)NC1CCCCC1 | 310 | 160 | – |
| Cc1nc(SCC(=O)N(C)c2ccccc2)[nH]c(=O)c1C | – | – | -9.88% (inactive) |
| Cc1nc(SCC(=O)NC2CCCCC2)[nH]c(=O)c1C | 230 | < 10 | – |
| O=C(CSc1nc2c(c(=O)[nH]1)CCC2)NC1CCCCC1 | < 70 | < 40 | – |
| Cn1c(SCC(=O)NC2CCCCC2)nc2ccccc2c1=O | – | – | -10.1% (inactive) |
